Tests used:
[1] = target: recombinant human cannabinoid 1 receptor (CB1) (Homo sapiens, UniProt P21554); assay: In vitro determination of antagonism to CB1-receptor ([35S]GTPγS binding assay, CHO cell membranes); type: biochemical; details: compound at 1 μM against agonist WIN 55,212-2 (3 nM to 3 μM); effect of Rimonabant (1 μM) defined as 100%
Description: Chinese hamster ovary (CHO) cells stably expressing recombinant human cannabinoid 1 receptor (CB1) were cultured in nutrient mixture Ham's F 12 supplemented with 10% heat-inactivated fetal bovine serum, 2 mM L-glutamine, 50 U/ml penicillin, 50 U/ml streptomycin and 0.5 mg/ml geneticin. In order to obtain cells, culture flasks were washed twice with phosphate buffered saline and scraped. Then, cells were collected by centrifugation (200×g, 10 min) and stored dry at −80° C. Cells were homogenized in ice-cold 20 mM HEPES, 10 mM EDTA (pH 7.5) and centrifuged at 40,000×g for 15 min at 4° C. The membrane pellet was resuspended in 20 mM HEPES, 0.1 mM EDTA (pH 7.5) and centrifuged for 15 min at 4° C. The final membrane pellet was resuspended in 20 mM HEPES, 0.1 mM EDTA (pH 7.5), and divided in aliquots and stored at −80° C. until use.
The reaction was performed in 96-well plates. Membranes (15 μg protein/well) were incubated for 60 min at 30° C. in buffer (50 mM HEPES, 100 mM KCl, 5 mM MgCl2,1 mM EDTA, 0.1% wt/vol bovine serum albumin, 5 μM GDP, saponin (10 μg/ml), 0.5 nM [^35S]GTPγS, pH 7.4) with compound at a final concentration of 1 μM in either the absence or presence of agonist WIN 55, 212-2 between 3 nM and 3 μM. The incubation was terminated by rapid filtration through Millipore Multiscreen glass fiber FB, and rinsed two-times with ice-cold assay buffer. Filter plates were dried and 30 μl of scintillation liquid was added. Radioactivity was determined using a Wallac Microbeta Trilux. Each experiment was performed at least in duplicate. A WIN 55, 212-2 dose-response experiment either alone or in the presence of Rimonabant (1 μM) was systematically performed.
The average of basal [^35S]GTPγS binding was subtracted from all binding data. In order to compare the antagonism results from one screening campaign to another one, the difference between the maximal agonist effect of WIN 55, 212-2 alone, and the maximal antagonism effect due to WIN 55, 212-2 plus Rimonabant (1 μM) was defined as 100%.

CB1 receptor [2] = target: T1, CB1 receptor; assay: In-vitro determination of affinity to CB1/CB2-receptors (radioligand [3H]-CP55940 binding); details: binding data per pharmacological methods part I, table does not say whether human transfected receptor or rat cerebellum
T1 construct: IC50 [nM]; radioligand [3H]-CP55940
Procedure, shortened: (§1)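 Transfected human CB1/CB2 receptors were tested with [3H]-CP55940. In the modified Govaerts method, rat cerebellum membranes (100 µg protein) were incubated with 1 nM [3H]-CP55940 and compound for 1 h at 30 °C in Tris-HCl/MgCl2/EDTA/0.5% BSA, pH 7.4, with 10 µM HU-210 defining non-specific binding. Filter-bound radioactivity was counted in triplicate and analysed by non-linear regression.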

CB1 receptor [3] = target: T2, CB1 receptor (UniProt P20272); assay: as above; details: for Inhibition [%], 10^−7 M: compound at 10^−7 M; for Inhibition [%], 10^−8 M: compound at 10^−8 M
T2 construct: other: compound at 10^−7 M; radioligand [3H]-CP55940; other: compound at 10^−8 M
Procedure, shortened: as §1

Sequence of recombinant human cannabinoid 1 receptor (CB1) (P21554 whole entry): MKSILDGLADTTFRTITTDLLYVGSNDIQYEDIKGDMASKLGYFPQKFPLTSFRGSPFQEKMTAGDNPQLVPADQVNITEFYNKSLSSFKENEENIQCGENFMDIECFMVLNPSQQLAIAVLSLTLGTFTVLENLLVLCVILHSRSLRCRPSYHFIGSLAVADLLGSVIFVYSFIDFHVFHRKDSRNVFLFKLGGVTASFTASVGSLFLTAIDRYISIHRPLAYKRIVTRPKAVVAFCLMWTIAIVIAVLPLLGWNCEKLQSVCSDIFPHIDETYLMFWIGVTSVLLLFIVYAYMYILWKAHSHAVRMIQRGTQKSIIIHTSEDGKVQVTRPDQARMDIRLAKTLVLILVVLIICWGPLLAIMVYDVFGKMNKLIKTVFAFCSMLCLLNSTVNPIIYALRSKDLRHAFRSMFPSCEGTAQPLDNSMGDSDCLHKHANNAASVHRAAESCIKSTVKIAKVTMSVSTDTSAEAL

Row | SMILES | Antagonism [%] [1] [%] | IC50 (CB1 receptor [2]) [nM] | Inhibition [%], 10^−7 M (CB1 receptor [3]) [%] | Inhibition [%], 10^−8 M (CB1 receptor [3]) [%] | IC50 (CB1 receptor [2]; hydrochloride) [nM]
1 | CC1CCCC(C)N1NC(=O)C1=NN(c2ccc(Cl)cc2Cl)C(c2ccc(Cl)cc2)C1 (centres unmarked) [Example 12, 5-(4-Chloro-phenyl)-1-(2,4-dichloro-phenyl)-4,5-dihydro-1H-pyrazole-3-carboxylic acid (2,6-dimethyl-piperidin-1-yl)-amide] | 78 | 250 |  |  | 
2 | CC1CCCCC1NC(=O)C1=NN(c2ccc(Cl)cc2Cl)C(c2ccc(Cl)cc2)C1 (centres unmarked) [Example 18, 5-(4-Chloro-phenyl)-1-(2,4-dichloro-phenyl)-4,5-dihydro-1H-pyrazole-3-carboxylic acid (2-methyl-cyclohexyl)-amide] | 78 | 25.1 |  |  | 
3 | O=C(C1=NN(c2ccc(Cl)cc2Cl)C(c2ccc(Cl)cc2)C1)N1CCC2CCCCC2C1 (centres unmarked) [Example 22, [5-(4-Chloro-phenyl)-1-(2,4-dichloro-phenyl)-4,5-dihydro-1H-pyrazol-3-yl]-(octahydro-isoquinolin-2-yl)-methanone] | 62 | 79.4 |  |  | 
4 | O=C(NN1CCCCC1)C1=NN(c2ccc(Cl)cc2Cl)C(c2ccc(F)cc2)C1 (centres unmarked) [Example 23, 1-(2,4-Dichloro-phenyl)-5-(4-fluoro-phenyl)-4,5-dihydro-1H-pyrazole-3-carboxylic acid piperidin-1-ylamide] | 91 | 39.8 |  |  | 
5 | O=C(NC1CCCC1)C1=NN(c2ccc(Cl)cc2Cl)C(c2ccc(Cl)cc2)C1 (centres unmarked) [Example 37, 5-(4-Chloro-phenyl)-1-(2,4-dichloro-phenyl)-4,5-dihydro-1H-pyrazole-3-carboxylic acid cyclopentylamide] | 81 | 280 |  |  | 
6 | CC1CCCC(NC(=O)C2=NN(c3ccc(Cl)cc3Cl)C(c3ccc(Cl)cc3)C2)C1 (centres unmarked) [Example 57, 5-(4-Chloro-phenyl)-1-(2,4-dichloro-phenyl)-4,5-dihydro-1H-pyrazole-3-carboxylic acid (3-methyl-cyclohexyl)-amide] | 81 | 39.8 |  |  | 
7 | O=C(NN1CC2CCCC2C1)C1=NN(c2ccc(Cl)cc2Cl)C(c2ccc(Br)cc2)C1 (centres unmarked) [Example 63, 5-(4-Bromo-phenyl)-1-(2,4-dichloro-phenyl)-4,5-dihydro-1H-pyrazole-3-carboxylic acid (hexahydro-cyclopenta[c]pyrrol-2-yl)-amide] | 119 | 25.1 |  |  | 
8 | O=C(NN1CCN(C2CCCC2)CC1)C1=NN(c2ccc(Cl)cc2Cl)C(c2ccc(Br)cc2)C1 (centres unmarked) [Example 64, 5-(4-Bromo-phenyl)-1-(2,4-dichloro-phenyl)-4,5-dihydro-1H-pyrazole-3-carboxylic acid (4-cyclopentyl-piperazin-1-yl)-amide] | 63 | 562 |  |  | 
9 | Cl.O=C(NN1CCc2ccccc21)C1=NN(c2ccc(Cl)cc2Cl)C(c2ccc(Br)cc2)C1 (centres unmarked) [Example 66, 5-(4-Bromo-phenyl)-1-(2,4-dichloro-phenyl)-4,5-dihydro-1H-pyrazole-3-carboxylic acid (2,3-dihydro-indol-1-yl)-amide hydrochloride] | 86 | 100 |  |  | 
10 | O=C(NN1CCCCCC1)C1=NN(c2ccc(Cl)cc2Cl)C(c2ccc(Br)cc2)C1 (centres unmarked) [Example 68, 5-(4-Bromo-phenyl)-1-(2,4-dichloro-phenyl)-4,5-dihydro-1H-pyrazole-3-carboxylic acid azepan-1-ylamide] | 98 | 39.8 |  |  | 
11 | COc1ccc(C2CC(C(=O)NN3CC4CCCC4C3)=NN2c2ccc(Cl)cc2Cl)cc1.Cl (centres unmarked) [Example 109A, 1-(2,4-Dichloro-phenyl)-5-(4-methoxy-phenyl)-4,5-dihydro-1H-pyrazole-3-carboxylic acid (hexahydro-cyclopenta[c]pyrrol-2-yl)-amide] |  | 15 | 74.2 | 33.5 | 
12 | COc1ccc(C2CC(C(=O)NN3CCc4ccccc43)=NN2c2ccc(Cl)cc2Cl)cc1.Cl (centres unmarked) [Example 112, 1-(2,4-Dichloro-phenyl)-5-(4-methoxy-phenyl)-4,5-dihydro-1H-pyrazole-3-carboxylic acid (2,3-dihydro-indol-1-yl)-amide hydrochloride] |  | 106 | 61.8 | 46.3 | 
13 | COc1ccc(C2CC(C(=O)NN3CCCCCC3)=NN2c2ccc(Cl)cc2Cl)cc1.Cl (centres unmarked) [Example 114, 1-(2,4-Dichloro-phenyl)-5-(4-methoxy-phenyl)-4,5-dihydro-1H-pyrazole-3-carboxylic acid azepan-1-ylamide hydrochloride] |  |  | 68.7 | 47.6 | 24
14 | COc1ccc(C2CC(C(=O)NN3CCCCCC3)=NN2c2ccc(Cl)cc2Cl)cc1 (centres unmarked) [Example 114A, 1-(2,4-Dichloro-phenyl)-5-(4-methoxy-phenyl)-4,5-dihydro-1H-pyrazole-3-carboxylic acid azepan-1-ylamide] |  | 18 | 79.3 | 41.4 | 
15 | O=C(NC1CCCCCC1)C1=NN(c2ccc(Cl)cc2Cl)C(c2ccc(Br)cc2)C1 (centres unmarked) [Example 130, 5-(4-Bromo-phenyl)-1-(2,4-dichloro-phenyl)-4,5-dihydro-1H-pyrazole-3-carboxylic acid cycloheptylamide] |  | 52 | 67.7 | 33.1 | 
16 | O=C(NC1CCCCCC1)C1=NN(c2ccc(Cl)cc2Cl)C(c2ccc(F)cc2)C1 (centres unmarked) [Example 131, 5-(4-Fluorophenyl)-1-(2,4-dichloro-phenyl)-4,5-dihydro-1H-pyrazole-3-carboxylic acid cycloheptylamide] |  | 115 | 70.2 | 42.9 | 
17 | Cl.O=C(NN1CCCCC1)C1=NN(c2ccc(Cl)cc2Cl)C(c2ccc(F)cc2)C1 (centres unmarked) [Example 135, 1-(2,4-Dichloro-phenyl)-5-(4-fluoro-phenyl)-4,5-dihydro-1H-pyrazole-3-carboxylic acid piperidin-1-ylamide hydrochloride] |  |  | 78.5 | 40.2 | 83
18 | O=C(NN1CCCCCCC1)C1=NN(c2ccc(Cl)cc2Cl)C(c2ccc(Br)cc2)C1 (centres unmarked) [Example 146, 5-(4-bromo-phenyl)-1-(2,4-dichloro-phenyl)-4,5-dihydro-1H-pyrazole-3-carboxylic acid azocan-1-ylamide] |  | 12 | 71.8 | 35.2 | 
19 | O=C(NN1CCCCCCC1)C1=NN(c2ccc(Cl)cc2Cl)C(c2ccc(F)cc2)C1 (centres unmarked) [Example 147, 5-(4-fluoro-phenyl)-1-(2,4-dichloro-phenyl)-4,5-dihydro-1H-pyrazole-3-carboxylic acid azocan-1-ylamide] |  | 54 | 63.4 | 24.0 | 
20 | O=C(N[C@H]1CCCC[C@@H]1OCc1ccccc1)C1=NN(c2ccc(Cl)cc2Cl)C(c2ccc(Cl)cc2)C1 (stereo partly drawn) [Example 151, N-((1S,2S)-2-(benzyloxy)cyclohexyl)-5-(4-chlorophenyl)-1-(2,4-dichlorophenyl)-4,5-dihydro-1H-pyrazole-3-carboxamide] |  | 32 | 82.3 | 67.5 | 
21 | O=C(N[C@@H]1CCCC[C@H]1OCc1ccccc1)C1=NN(c2ccc(Cl)cc2Cl)C(c2ccc(Cl)cc2)C1 (stereo partly drawn) [Example 178, N-((1R,2R)-2-(benzyloxy)cyclohexyl)-5-(4-chlorophenyl)-1-(2,4-dichlorophenyl)-4,5-dihydro-1H-pyrazole-3-carboxamide] |  | 119 | 58 | 41.2 | 
22 | Cl.O=C(NN1CCc2ccccc21)C1=NN(c2ccc(Cl)cc2Cl)[C@@H](c2ccc(Cl)cc2)C1 [Example 181, (R)-5-(4-Chloro-phenyl)-1-(2,4-dichloro-phenyl)-4,5-dihydro-1H-pyrazole-3-carboxylic acid (2,3-dihydro-indol-1-yl)-amide hydrochloride] |  |  | 50.6 | 33.7 | 24
